Experimental data as given in patent publication US20250154288A1, “CYTOTOXICITY TARGETING CHIMERAS FOR C-C CHEMOKINE RECEPTOR 2-EXPRESSING CELLS” (GLAXOSMITHKLINE INTELLECTUAL PROPERTY DEVELOPMENT LIMITED, priority 2022, published 2025).
Structures can show the parent of a compound that is named as a salt.

Assays:
[1] = tested on: CCR2 expressing cells (CD11b+Ly6c+ Hi) in peripheral blood; test: In Vivo Depletion Assay (flow cytometry of peripheral blood); design: species or system Human CCR2 (hCCR2) knock-in mice; conditions: hCCR2 knock-in mice; IV 0.1 mpk compound + 10 mpk anti-cotinine antibody (mouse IgG2a Fc); peripheral blood at 48 hr
Procedure: Human CCR2 (hCCR2) knock-in mice (057 background) were dosed intravenously with a PBS solution containing a compound of Formula (I) to measure depletion of CCR2 expressing cells in peripheral blood. Peripheral blood from IV dosed mice was also analyzed to determine PK properties of the ARM compounds of Formula (I).
Stock solution preparation: Stock solutions of compounds of Formula (I) were prepared at 20 mg/mL and 100 mg/mL in DMSO for PK/PD and dose tolerability studies respectively. Stock solutions were stored at −20° C. until further usage.
Formulations preparation: On the day of experiment, the stock solution of the compound of Formula (I) was removed from storage at −20° C. and thawed at room temperature. Anti-cotinine antibody having a heavy chain sequence of SEQ ID NO: 13 and a light chain sequence of SEQ ID NO: 14 (rabbit variable region sequence with mouse IgG2a Fc domain), if required was removed from storage at −80° C. and thawed at room temperature. Antibody vials were immediately transferred into wet ice after thawing. Compounds of Formula (I) were further diluted in DMSO as per experimental requirements.
Formulation composition: The formulation composition was Saline: DMSO: PBS. Saline was added based on the quantity required and then stock solution of the compound of Formula (I) prepared in DMSO, followed by addition of antibody in PBS. Formulations were incubated at room temperature for 30 minutes before administration to the mouse. DMSO was used at 1 to 2% (v/v) in the final formulation.
Administration to Animal: Solution formulation of antibody and compound of Formula (I) was injected (bolus injection) to the restrained mouse in the right/left lateral tail vein. Animals were dosed with 0.1 milligram per kilogram (mpk) of the compound of Formula (I) and 10 mpk of the anti-cotinine antibody.
Terminal bleeding at end of experiment (48 hr): Approximately 250 μL of blood in K2EDTA tube and approximately 250 μL of blood in SST (serum separation tube) was collected from each mouse through retro-orbital bleeding under deep isoflurane anesthesia. After bleeding, each mouse was sacrificed by cervical dislocation. The blood distribution at termination was determined as follows: • For PK: 50 μL of K2EDTA blood was transferred to another tube for PK • Flow cytometry: Remaining blood (˜200 μL) was used for flow cytometry analysis. • For serum collection: serum separator tubes (BD) were centrifuged at 4° C., 5000 rpm for 15 minutes. Approximately 100 μL serum was separated and stored at −80° C. for further usage. • Blood drug concentration: Samples collected at the various timepoints (0.25 hr, 2 hr, 24 and 48 hr) were analyzed to determine blood drug concentration.
CCR2 depletion in peripheral blood was determined by flow cytometry. Briefly, peripheral blood was collected from all animals at the end of study termination and processed. Blood samples were lysed using 1×RBC Lysis buffer and the resulting cell pellet was washed twice in FACS buffer (HBSS containing 5% FBS). Cells were subjected to Fc blocking using mouse Fc block from Biolegend (Trustain, anti-mouse CD16/32, Cat: 101319) to block non-specific binding followed by surface staining for immune markers (CD45, CD3, CD11b, Ly6C, human CCR2). Surface staining was done for 30 minutes in ice and cells were washed twice to remove unbound antibodies. Cells were stained with 7AAD to determine viability and acquired on BD FACSVerse flow cytometer. Appropriate FMO controls and single-color controls were included in the experiment for gating and compensation respectively.
Percent depletion of CD11b+Ly6c+ Hi cells and CCR2 expression for the different treatment groups was determined. The results are shown below in Table 4 and are reported as percent (%) depletion of CCR2 expressing cells.

[2] = target: T1, CHOK1 cells engineered to overexpress human CCR2 (Homo sapiens, UniProt P41597); test: Antibody Dependent Cellular Cytotoxicity (ADCC) Reporter Assay; assay type: cell-based; conditions: with anti-cotinine antibody (human IgG1 Fc, S239D/I332E); Jurkat FcγRIIIa NFAT-luciferase reporter cells; average if several runs; read-out: ADCC Reporter Assay pEC50 (converted)
T1 construct: expressed in transfected cells; host or cells: CHOK1
Procedure, shortened: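 CHOK1-hCCR2 target cells co-incubated ~12-18 h with compound (1 pM–10 μM), anti-cotinine rabbit/human IgG1 S239D/I332E antibody (0.01–200 μg/mL) and Jurkat FcγRIIIa NFAT-luciferase reporter cells. Luminescence signal:background versus no-compound wells; EC50 from four-parameter fit, reported as pEC50, averaged over runs.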

| Structure (SMILES) | % Depletion of CCR2 expressing cells [1] | EC50 [2] |
| --- | --- | --- |
| CO[C@@H]1COCC[C@@H]1N[C@@H]1CC[C@](CCC2CCN(C(=O)[C@H]3CC[C@H](NC(=O)CCCO[C@H]4CC[C@H](OCCNC(=O)[C@H]5CC(=O)N(C)[C@@H]5c5cccnc5)CC4)CC3)CC2)(C(=O)N2CCc3ncc(C(F)(F)F)cc3C2)C1 [Example 2, (2S,3S)—N-(2-(((1R,4S)-4-(4-(((1S,4R)-4-(4-(2-((1S,3R)-3-(((3S,4S)-3-Methoxytetrahydro-2H-pyran-4-yl)amino)-1-(3-(trifluoromethyl)-5,6,7,8-tetrahydro-1,6-naphthyridine-6-carbonyl)cyclopentyl)ethyl)piperidine-1-carbonyl)cyclohexyl)amino)-4-oxobutoxy)cyclohexyl)oxy)ethyl)-1-methyl-5-oxo-2-(pyridin-3-yl)pyrrolidine-3-carboxamide] | 97.7% | 12.6 nM |
| CO[C@@H]1COCC[C@@H]1N[C@@H]1CC[C@](CCCCCNC(=O)[C@H]2CC[C@H](NC(=O)CCCO[C@H]3CC[C@H](OCCNC(=O)[C@H]4CC(=O)N(C)[C@@H]4c4cccnc4)CC3)CC2)(C(=O)N2CCc3ncc(C(F)(F)F)cc3C2)C1 [Example 9, (2S,3S)-N-(2-(((1R,4S)-4-(4-(((1S,4R)-4-((5-((1S,3R)-3-(((3S,4S)-3-Methoxytetrahydro-2H-pyran-4-yl)amino)-1-(3-(trifluoromethyl)-5,6,7,8-tetrahydro-1,6-naphthyridine-6-carbonyl)cyclopentyl)pentyl)carbamoyl)cyclohexyl)amino)-4-oxobutoxy)cyclohexyl)oxy)ethyl)-1-methyl-5-oxo-2-(pyridin-3-yl)pyrrolidine-3-carboxamide] | 99% | 1.26 nM |
| CO[C@@H]1COCC[C@@H]1N[C@@H]1CC[C@](CCCNC(=O)[C@H]2CC[C@@H](NC(=O)CCCO[C@H]3CC[C@@H](OCCNC(=O)[C@H]4CC(=O)N(C)[C@@H]4c4cccnc4)CC3)CC2)(C(=O)N2CCc3ncc(C(F)(F)F)cc3C2)C1 [Example 4, (2S,3S)-N-(2-(((1S,4R)-4-(4-(((1R,4S)-4-((3-((1S,3R)-3-(((3S,4S)-3-Methoxytetrahydro-2H-pyran-4-yl)amino)-1-(3-(trifluoromethyl)-5,6,7,8-tetrahydro-1,6-naphthyridine-6-carbonyl)cyclopentyl)propyl)carbamoyl)cyclohexyl)amino)-4-oxobutoxy)cyclohexyl)oxy)ethyl)-1-methyl-5-oxo-2-(pyridin-3-yl)pyrrolidine-3-carboxamide, Formic acid salt] | 99.69% | 0.794 nM |
| CO[C@@H]1COCC[C@@H]1N[C@@H]1CC[C@](CCNC(=O)[C@H]2CC[C@H](NC(=O)CCCO[C@H]3CC[C@H](OCCNC(=O)[C@H]4CC(=O)N(C)[C@@H]4c4cccnc4)CC3)CC2)(C(=O)N2CCc3ncc(C(F)(F)F)cc3C2)C1 [Example 8, (2S,3S)-N-(2-(((1R,4S)-4-(4-(((1R,4R)-4-((2-((1R,3R)-3-(((3S,4S)-3-Methoxytetrahydro-2H-pyran-4-yl)amino)-1-(3-(trifluoromethyl)-5,6,7,8-tetrahydro-1,6-naphthyridine-6-carbonyl)cyclopentyl)ethyl)carbamoyl)cyclohexyl)amino)-4-oxobutoxy)cyclohexyl)oxy)ethyl)-1-methyl-5-oxo-2-(pyridin-3-yl)pyrrolidine-3-carboxamide] | 99.22% | 1.58 nM |
| CO[C@@H]1COCC[C@@H]1N[C@@H]1CC[C@](CCCCNC(=O)[C@H]2CC[C@H](NC(=O)CCCO[C@H]3CC[C@H](OCCNC(=O)[C@H]4CC(=O)N(C)[C@@H]4c4cccnc4)CC3)CC2)(C(=O)N2CCc3ncc(C(F)(F)F)cc3C2)C1 [Example 7, (2S,3S)-N-(2-(((1R,4S)-4-(4-(((1S,4R)-4-((4-((1S,3R)-3-(((3S,4S)-3-Methoxytetrahydro-2H-pyran-4-yl)amino)-1-(3-(trifluoromethyl)-5,6,7,8-tetrahydro-1,6-naphthyridine-6-carbonyl)cyclopentyl)butyl)carbamoyl)cyclohexyl)amino)-4-oxobutoxy)cyclohexyl)oxy)ethyl)-1-methyl-5-oxo-2-(pyridin-3-yl)pyrrolidine-3-carboxamide] | 86.93% | 2.51 nM |
| CO[C@@H]1COCC[C@@H]1N[C@@H]1CC[C@](CCCNC(=O)CCOCCOCCOCCOCCOCCOCCOCCOCCOCCOCCOCCOCCNC(=O)[C@H]2CC(=O)N(C)[C@@H]2c2cccnc2)(C(=O)N2CCc3ncc(C(F)(F)F)cc3C2)C1 [Example 1, (2S,3S)—N-(43-((1S,3R)-3-(((3S,4S)-3-methoxytetrahydro-2H-pyran-4-yl)amino)-1-(3-(trifluoromethyl)-5,6,7,8-tetrahydro-1,6-naphthyridine-6-carbonyl)cyclopentyl)-39-oxo-3,6,9,12,15,18,21,24,27,30,33,36-dodecaoxa-40-azatritetracontyl)-1-methyl-5-oxo-2-(pyridin-3-yl)pyrrolidine-3-carboxamide] | 91.67% | 2.51 nM |
| CO[C@@H]1COCC[C@@H]1N[C@@H]1CC[C@](CCCNC(=O)[C@H]2CC[C@H](NC(=O)CCCO[C@H]3CC[C@H](OCCNC(=O)[C@H]4CC(=O)N(C)[C@@H]4c4cccnc4)CC3)CC2)(C(=O)N2CCc3ncc(C(F)(F)F)cc3C2)C1 [Example 3, (2S,3S)-N-(2-(((1R,4S)-4-(4-(((1S,4R)-4-((3-((1S,3R)-3-(((3S,4S)-3-Methoxytetrahydro-2H-pyran-4-yl)amino)-1-(3-(trifluoromethyl)-5,6,7,8-tetrahydro-1,6-naphthyridine-6-carbonyl)cyclopentyl)propyl)carbamoyl)cyclohexyl)amino)-4-oxobutoxy)cyclohexyl)oxy)ethyl)-1-methyl-5-oxo-2-(pyridin-3-yl)pyrrolidine-3-carboxamide] | 98.4% | 0.631 nM |
